Measured values as given in ChEMBL document CHEMBL1145635, “Identification of long chain alkylidenemalonates as novel small molecule modulators of histone acetyltransferases” (2008).
Calls of active or inactive are those of the source. The rule behind the calls is not given here.

Columns and labels:
U-937 [1] = assay: Inhibition of p300/CBP in human U937 cells at 50 uM; assay type: cell-based; design: scale not given: the % may be the effect or the level left
HEK-TE [2] = assay: Increase in histone H3 acetylation in human HEK-TE cells at 5 uM after 6 hrs by Western blot analysis; assay type: functional, cell-based
U-937 [3] = assay: Cell cycle arrest in human U937 cells assessed as accumulation at S phase at 25 uM after 42 hrs by flow cytometry; assay type: functional, cell-based
U-937 [4] = assay: Induction of apoptosis in human U937 cells at 25 uM after 42 hrs by flow cytometry; assay type: functional
U-937 [5] = assay: Inhibition of recombinant CBP in human U937 cells at 50 uM; assay type: cell-based; design: scale not given: the % may be the effect or the level left
U-937 [6] = assay: Increase in histone H3 acetylation in human U937 cells at 50 uM after 20 hrs by Western blot analysis; assay type: functional, cell-based
U-937 [7] = assay: Effect on non histone alpha-tubulin in human U937 cells at 50 uM after 16 hrs by Western blot analysis; assay type: functional, cell-based
HEK-TE [8] = assay: Increase in histone H3 acetylation in human HEK-TE cells at 50 uM after 6 hrs by Western blot analysis; assay type: functional, cell-based
[9] = molecular target: Histone acetyltransferase KAT2B (Homo sapiens) (UniProt Q92831); assay: Effect on PCAF in human U937 cells assessed as increase in acetylation activity at 50 uM; assay type: cell-based; details: U-937
[10] = molecular target: Histone acetyltransferase KAT2A (Homo sapiens) (UniProt Q92830); assay: Inhibition of GCN5 in human U937 cells at 50 uM; assay type: cell-based; details: U-937
U-937 [11] = assay: Increase in histone H3 acetylation in human U937 cells at 50 uM after 16 hrs by Western blot analysis; assay type: functional, cell-based
U-937 [12] = assay: Induction of apoptosis in human U937 cells at 50 uM after 42 hrs by flow cytometry; assay type: functional
U-937 [13] = assay: Increase in histone H3 acetylation in human U937 cells at 5 uM after 20 hrs by Western blot analysis; assay type: functional, cell-based

Sequence of Histone acetyltransferase KAT2A (Homo sapiens) (Q92830 2-837 limits assumed): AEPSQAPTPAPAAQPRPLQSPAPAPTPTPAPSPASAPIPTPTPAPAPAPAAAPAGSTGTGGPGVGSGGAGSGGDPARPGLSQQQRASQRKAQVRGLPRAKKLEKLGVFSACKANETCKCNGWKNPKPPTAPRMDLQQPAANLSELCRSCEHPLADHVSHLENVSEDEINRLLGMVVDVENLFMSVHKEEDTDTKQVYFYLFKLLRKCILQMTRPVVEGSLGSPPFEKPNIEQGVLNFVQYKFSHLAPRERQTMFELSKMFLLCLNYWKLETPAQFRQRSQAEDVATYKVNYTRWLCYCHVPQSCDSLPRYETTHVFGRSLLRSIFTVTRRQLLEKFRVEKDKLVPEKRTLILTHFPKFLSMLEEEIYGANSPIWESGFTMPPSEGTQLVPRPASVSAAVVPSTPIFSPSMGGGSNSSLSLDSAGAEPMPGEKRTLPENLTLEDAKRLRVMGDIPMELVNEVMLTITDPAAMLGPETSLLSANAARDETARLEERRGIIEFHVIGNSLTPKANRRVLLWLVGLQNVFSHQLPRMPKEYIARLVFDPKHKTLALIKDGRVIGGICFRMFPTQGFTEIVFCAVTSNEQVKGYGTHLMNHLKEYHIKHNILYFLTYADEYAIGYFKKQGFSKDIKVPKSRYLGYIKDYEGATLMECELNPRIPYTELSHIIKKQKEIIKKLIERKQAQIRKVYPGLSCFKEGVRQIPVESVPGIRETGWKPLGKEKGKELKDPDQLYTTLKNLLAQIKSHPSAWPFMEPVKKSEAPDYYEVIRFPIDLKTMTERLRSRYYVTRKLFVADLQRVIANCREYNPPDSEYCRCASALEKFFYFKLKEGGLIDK
Sequence of Histone acetyltransferase KAT2B (Homo sapiens) (Q92831 whole entry, looked up): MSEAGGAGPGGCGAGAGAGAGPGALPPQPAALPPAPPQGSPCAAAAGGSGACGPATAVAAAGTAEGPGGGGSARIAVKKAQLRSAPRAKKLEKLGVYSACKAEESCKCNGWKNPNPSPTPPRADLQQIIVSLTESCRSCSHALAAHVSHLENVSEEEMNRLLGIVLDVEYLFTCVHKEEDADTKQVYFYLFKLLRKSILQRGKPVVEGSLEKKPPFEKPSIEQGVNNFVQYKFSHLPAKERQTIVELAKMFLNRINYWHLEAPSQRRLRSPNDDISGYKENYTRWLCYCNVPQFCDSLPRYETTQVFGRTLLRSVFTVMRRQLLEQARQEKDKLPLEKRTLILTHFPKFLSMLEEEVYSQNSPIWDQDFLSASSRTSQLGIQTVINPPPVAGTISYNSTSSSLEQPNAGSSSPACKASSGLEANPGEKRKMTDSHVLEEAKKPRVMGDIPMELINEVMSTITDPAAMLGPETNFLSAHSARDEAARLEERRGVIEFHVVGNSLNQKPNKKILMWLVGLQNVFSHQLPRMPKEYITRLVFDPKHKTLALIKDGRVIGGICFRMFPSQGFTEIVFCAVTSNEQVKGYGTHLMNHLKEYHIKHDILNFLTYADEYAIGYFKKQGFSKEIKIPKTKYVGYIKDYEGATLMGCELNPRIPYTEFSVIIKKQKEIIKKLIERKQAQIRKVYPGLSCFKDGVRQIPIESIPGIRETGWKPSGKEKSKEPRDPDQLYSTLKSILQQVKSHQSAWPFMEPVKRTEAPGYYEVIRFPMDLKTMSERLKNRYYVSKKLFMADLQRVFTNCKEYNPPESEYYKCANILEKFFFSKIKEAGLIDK

COc1cc(/C=C/C(=O)CC(=O)/C=C/c2ccc(O)c(OC)c2)ccc1O
Activity (U-937 [1]): 46%

O=C(CCCCCCC(=O)Nc1ccccc1)NO
Activity (HEK-TE [2]): Active

CCCCCCCCCCCCCC=C(C(=O)OCC)C(=O)OCC
Activity (U-937 [3]): Active
Activity (U-937 [4]): 23.8%

C=CC/C=C\C/C=C\CCCCCCCc1cccc(O)c1C(=O)O
Activity (U-937 [5]): 62%

C=C1C(=O)O[C@H](CCC)[C@H]1C(=O)O
Activity (U-937 [5]): 55%

CCCCCCCCCCCCCCC=C(C(=O)OCC)C(=O)OCC
Activity (U-937 [6]): Active
Activity (U-937 [7]): inactive
Activity (U-937 [1]): 74%
Activity (U-937 [5]): 81%
Activity (HEK-TE [8]): Active
Activity (HEK-TE [2]): Active
Activity [9]: Active
Activity [10]: inactive
Activity (U-937 [3]): Active
Activity (U-937 [11]): Active
Activity (U-937 [12]): 94.4%
Activity (U-937 [13]): Active
Activity (U-937 [4]): 23.9%
